Measurements taken from patent US6551964B1, “Use of citric acid derivatives as pesticidal adjuvants” (Bayer Cropscience S.A., priority 1998, dated 2003).
Counter-ions that a name gives are not always drawn.

Test system: test species shown in Table C (common weeds)
Assay: Herbicidal efficacy, glasshouse, all test species of Table C
Type: in vivo
Conditions: adjuvant alone, experiments 26d to 29d

Row | Structure (SMILES) | herbicidal effects in the absence of any active ingredient
1 | CCCCOC(=O)CC(O)(CC(=O)OCCCC)C(=O)OCCCC [tri-n-butyl citrate] | no herbicidal effects
2 | CCCCOC(=O)CC(CC(=O)OCCCC)(OC(C)=O)C(=O)OCCCC [O-acetyl tri-n-butyl citrate] | no herbicidal effects
